Reference: ChEMBL document CHEMBL1146432, “Bengamides and Related New Amino Acid Derivatives from the New Caledonian Marine Sponge Jaspis carteri” (J Nat Prod, 1997)
Calls of active or inactive are those of the source. The calls are words filed in the database; no cut-off is given here.

Each compound was assayed on Candida (assay: Antifungal activity against Candida at 100 ug/mL).
Assay type: functional, organism-based

Question: Which Activity does the source give for `CCCCCCCCCCCCCCC(=O)O[C@H]1CC[C@H](NC(=O)[C@H](OC)[C@H](O)[C@@H](O)[C@H](O)/C=C/C(C)C)C(=O)N(C)C1` here?
Answer: Its Activity is “inactive”.

Question: With `CCCCCCCCCCCCC(=O)O[C@H]1CC[C@H](NC(=O)[C@H](OC)[C@H](O)[C@@H](O)[C@H](O)/C=C/C(C)C)C(=O)NC1` as the compound, how does the Activity read?
Answer: The Activity was “inactive”.

Question: For `CCCCCCCCCCCCC(=O)O[C@H]1CC[C@H](NC(=O)[C@H](OC)[C@H](O)[C@@H](O)[C@H](O)/C=C/C(C)C)C(=O)N(C)C1`, which Activity is on record?
Answer: Its Activity is “inactive”.

Question: How did the Activity turn out when `CCCCCCCCCCCCCCC(=O)O[C@H]1CC[C@H](NC(=O)[C@H](OC)[C@H](O)[C@@H](O)[C@H](O)/C=C/C(C)C)C(=O)NC1` was run?
Answer: Its Activity is “inactive”.

Question: Which Activity does the source give for `CCCCCCCCCCCCCC(=O)O[C@H]1CC[C@H](NC=O)C(=O)N(C)C1` here?
Answer: The Activity was “inactive”.

Question: With `CO[C@H]1C(=O)O[C@@H]([C@H](O)/C=C/C(C)C)[C@H]1O` as the compound, how does the Activity read?
Answer: The Activity was “inactive”.

Question: Which Activity does the source give for `CCCCCCCCCCCCCC(=O)O[C@H]1CC[C@H](NC(=O)[C@H](OC)[C@H](O)[C@@H](O)[C@H](O)/C=C/C(C)C)C(=O)NC1` here?
Answer: Its Activity is “inactive”.

Question: With `CCCCCCCCCCCCCC(=O)O[C@H]1CC[C@H](NC(=O)[C@H](OC)[C@H](O)[C@@H](O)[C@H](O)/C=C/C(C)C)C(=O)N(C)C1` as the compound, how does the Activity read?
Answer: Its Activity is “inactive”.
